Laboratory results reported in PMC9848300, “Discovery of novel enasidenib analogues targeting inhibition of mutant isocitrate dehydrogenase 2 as antileukaemic agents” (Journal of Enzyme Inhibition and Medicinal Chemistry, 2023).

Columns and labels:
HCT-116 = test: NCI 60 antitumor screening (single dose / five doses); type: cell-based; details: Homo sapiens; HCT-116 (colon cancer), single dose 10 μM; read-out: Growth inhibition percentage (GI %)
786-0 = test: as above; type: cell-based; details: Homo sapiens, 786-0, 786-0 (renal cancer), single dose 10 μM; read-out: Growth inhibition percentage (GI %)
[1] = tested on: 60 human subpanel cancer cell lines; test: NCI 60 antitumor screening, mean over the panel (single dose); type: cell-based; details: mean over 60 cancer cell lines, single dose 10 μM
In short: (§1)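 GI% derived as 100 − G% from triplicate growth measurements in the NCI 60 human tumour panel, compound 10 μM, single dose, per NCI protocol.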

EKVX = test: NCI 60 antitumor screening (single dose / five doses); type: cell-based; details: Homo sapiens; EKVX (non-small cell lung cancer), single dose 10 μM; read-out: Growth inhibition percentage (GI %)
SW-620 = test: as above; type: cell-based, human; details: Homo sapiens; SW-620 (colon cancer), single dose 10 μM; read-out: Growth inhibition percentage (GI %)
MDA-MB-468 = test: as above; type: cell-based; details: Homo sapiens; MDA-MB-468 (breast cancer), single dose 10 μM; read-out: Growth inhibition percentage (GI %)
SK-MEL-2 = test: as above; type: cell-based; details: Homo sapiens; SK-MEL-2 (melanoma), single dose 10 μM; read-out: Growth inhibition percentage (GI %)
MDA-MB-435 = test: as above; type: cell-based; details: Homo sapiens; MDA-MB-435 (melanoma), single dose 10 μM; read-out: Growth inhibition percentage (GI %)
HCT-15 = test: as above; type: cell-based; details: Homo sapiens; HCT-15 (colon cancer), single dose 10 μM; read-out: Growth inhibition percentage (GI %)
SF-539 = test: as above; type: cell-based; details: Homo sapiens; SF-539 (CNS cancer), single dose 10 μM; read-out: Growth inhibition percentage (GI %)
SF-295 = test: as above; type: cell-based; details: Homo sapiens; SF-295 (CNS cancer), single dose 10 μM; read-out: Growth inhibition percentage (GI %)
RXF 393 = test: as above; type: cell-based; details: Homo sapiens; RXF 393 (renal cancer), single dose 10 μM; read-out: Growth inhibition percentage (GI %)
IGROV1 = test: as above; type: cell-based; details: Homo sapiens, IGROV-1; IGROV1 (ovarian cancer), single dose 10 μM; read-out: Growth inhibition percentage (GI %)
RPMI-8226 = test: as above; type: cell-based; details: Homo sapiens; RPMI-8226 (leukaemia), single dose 10 μM; read-out: Growth inhibition percentage (GI %)
TK-10 = test: NCI 60 antitumor screening (single dose); type: cell-based; details: Homo sapiens; TK-10 (renal cancer), single dose 10 μM; read-out: Growth inhibition percentage (GI %)
In short: (§2)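 Assessment used the first tier of the NCI 60 screen, one dose of 10 μM per compound. Triplicate experiments gave percent growth of treated cells. Inhibition was then derived as 100 − G%.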

SNB-19 = test: NCI 60 antitumor screening (single dose); type: cell-based; details: Homo sapiens; SNB-19 (CNS cancer), single dose 10 μM; read-out: Growth inhibition percentage (GI %)
In short: as §2

HCC-2998 = test: NCI 60 antitumor screening (single dose); type: cell-based; details: Homo sapiens; HCC-2998 (colon cancer), single dose 10 μM; read-out: Growth inhibition percentage (GI %)
In short: as §1

LOX IMVI = test: NCI 60 antitumor screening (single dose / five doses); type: cell-based; details: Homo sapiens; LOX IMVI (melanoma), single dose 10 μM; read-out: Growth inhibition percentage (GI %)
HOP-92 = test: as above; type: cell-based; details: Homo sapiens; HOP-92 (non-small cell lung cancer), single dose 10 μM; read-out: Growth inhibition percentage (GI %)
BT-549 = test: as above; type: cell-based; details: Homo sapiens; BT-549 (breast cancer), single dose 10 μM; read-out: Growth inhibition percentage (GI %)
COLO 205 = test: as above; type: cell-based; details: Homo sapiens; COLO 205 (colon cancer), single dose 10 μM; read-out: Growth inhibition percentage (GI %)
CCRF-CEM = test: as above; type: cell-based; details: Homo sapiens; CCRF-CEM (leukaemia), single dose 10 μM; read-out: Growth inhibition percentage (GI %)
UACC-62 = test: as above; type: cell-based; details: Homo sapiens; UACC-62 (melanoma), single dose 10 μM; read-out: Growth inhibition percentage (GI %)
MDA-MB-231/ATCC = test: as above; type: cell-based; details: Homo sapiens; MDA-MB-231/ATCC (breast cancer), single dose 10 μM; read-out: Growth inhibition percentage (GI %)
UO-31 = test: as above; type: cell-based; details: Homo sapiens; UO-31 (renal cancer), single dose 10 μM; read-out: Growth inhibition percentage (GI %)
NCI/ADR-RES = test: as above; type: cell-based; details: Homo sapiens; NCI/ADR-RES (ovarian cancer), single dose 10 μM; read-out: Growth inhibition percentage (GI %)
SR = test: as above; type: cell-based; details: Homo sapiens; SR (leukaemia), single dose 10 μM; read-out: Growth inhibition percentage (GI %)
A498 = test: as above; type: cell-based; details: Homo sapiens; A498 (renal cancer), single dose 10 μM; read-out: Growth inhibition percentage (GI %)

| SMILES | inhibition at 10 µM (HCT-116) [%] | inhibition at 10 µM (786-0) [%] | Mean GI % [1] [%] | inhibition at 10 µM (EKVX) [%] | inhibition at 10 µM (SW-620) [%] | inhibition at 10 µM (MDA-MB-468) [%] | inhibition at 10 µM (SK-MEL-2) [%] | inhibition at 10 µM (MDA-MB-435) [%] | inhibition at 10 µM (HCT-15) [%] | inhibition at 10 µM (SF-539) [%] | inhibition at 10 µM (SF-295) [%] | inhibition at 10 µM (RXF 393) [%] | inhibition at 10 µM (IGROV1) [%] | inhibition at 10 µM (RPMI-8226) [%] | inhibition at 10 µM (TK-10) [%] | inhibition at 10 µM (SNB-19) [%] | inhibition at 10 µM (HCC-2998) [%] | inhibition at 10 µM (LOX IMVI) [%] | inhibition at 10 µM (HOP-92) [%] | inhibition at 10 µM (BT-549) [%] | also measured |
| --- | --- | --- | --- | --- | --- | --- | --- | --- | --- | --- | --- | --- | --- | --- | --- | --- | --- | --- | --- | --- | --- |
| Brc1cccc(/C=N/Nc2nc(N/N=C/c3cccc(Br)c3)nc(N3CCCCC3)n2)c1 [compound 7c, 2,4-Bis[(E)-2-[(3-Bromophenyl)methylidene]hydrazin-1-yl]-6-(piperidin-1-yl)-1,3,5-triazine] | 13.5 | 4.36 | 2.56 | 22.4 | -8.28 | 9.99 | -2.13 | 4.57 | 16.1 | -6.24 | 2.91 | -16.1 | -0.7 | 11.8 | -27.6 | -2.24 | -2.01 | -5.74 | -12.8 | -13.1 | inhibition at 10 µM (COLO 205): -5.18%; inhibition at 10 µM (CCRF-CEM): 18.7%; inhibition at 10 µM (UACC-62): 14.5%; inhibition at 10 µM (MDA-MB-231/ATCC): -8.36%; inhibition at 10 µM (UO-31): 20.2%; inhibition at 10 µM (NCI/ADR-RES): 9.29%; inhibition at 10 µM (SR): 12.9%; inhibition at 10 µM (A498): 12.2% |
| Brc1ccccc1/C=N/Nc1nc(N/N=C/c2ccccc2Br)nc(N2CCOCC2)n1 [compound 6b, 2,4-Bis[(E)-2-[(2-bromophenyl)methylidene]hydrazin-1-yl]-6-(morpholin-4-yl)-1,3,5-triazine] | 2.53 | 38.7 | 7.16 | 19.8 | 3.31 | 9.74 | 3.71 | 2.29 | 18.9 | -4.64 | 14.5 | 30.4 | 10.3 | 35 | 0.58 | -1.04 | 29.1 | -2.7 | -12.3 | -6.54 | inhibition at 10 µM (COLO 205): 13.9%; inhibition at 10 µM (CCRF-CEM): 19.9%; inhibition at 10 µM (UACC-62): -2.17%; inhibition at 10 µM (MDA-MB-231/ATCC): -3.3%; inhibition at 10 µM (UO-31): 21.4%; inhibition at 10 µM (NCI/ADR-RES): 8.51%; inhibition at 10 µM (SR): 36.1%; inhibition at 10 µM (A498): 49.8% |
